The source of these data is patent US11377473B2, “Albumin-binding prodrugs of auristatin E derivatives” (priority 2017, dated 2022).

In data set [1] the test system is panel of 6 selected human cancer cell lines (LXFL 1674L, SW-620, CAL-27, RKO, MDA-MB-468, SK-OV-3). Put plainly: IC50 determination in a panel of tumor cell lines (CellTiter-Blue Cell Viability assay). It is filed as cell-based. The procedure: Samples were provided to Charles River Discovery Research Services Germany GmbH as frozen stock solutions in pharmaceutical grade DMSO (Sigma-Aldrich, Taufkirchen, Germany). On each day of the experiment, a frozen aliquot of stock solution was thawed. Subsequent serial dilutions were realized with complete RPMI 1640 cell culture medium using an intermediate dilution plate. 10 μL taken from the intermediate dilution plate were then transferred to 140 μL/well of the cell culture plate. Cells were treated with the test compounds at 10 concentrations in triplicate in half-log steps from 0.003 nM to 100 nM for a period of 96 h.
The compounds were tested in a panel of 6 selected human cancer cell lines by using CellTiter-Blue® Cell Viability assay (Promega, Mannheim, Germany). IC values are reported as absolute IC50 values, obtained for a test compound as the geometric mean of IC50 values over all cell lines tested.
The cell lines used were LXFL 1674L (established from patient-derived xenograft at Charles River Discovery Research Services Germany GmbH), SW-620 (kindly provided by the NCI, Bethesda, Md., USA), CAL-27 (purchased from DSMZ, Deutsche Sammlung von Mikroorganismen und Zellkulturen, Braunschweig, Germany), RKO, MDA-MB-468, and SK-OV-3 (from ATCC, American Type Culture Collection, Rockville, Md., USA). Authenticity of all cell lines was proven at the DSMZ by STR (short tandem repeat) analysis, a PCR based DNA-fingerprinting methodology. Cell lines were routinely passaged once or twice weekly and maintained in culture for up to 20 passages. Cells were grown at 37° C. in a humidified atmosphere with 5% CO2 in RPMI 1640 medium (25 mM HEPES, with L-glutamine, Biochrom, Berlin, Germany) supplemented with 10% (v/v) fetal calf serum (Sigma-Aldrich, Taufkirchen, Germany) and 0.1 mg/mL gentamicin (Life Technologies, Karlsruhe, Germany). The CellTiter-Blue® Cell Viability Assay was used according to manufacturer's instructions. Briefly, cells were harvested from exponential phase cultures, counted and plated in 96-well flat-bottom microtiter plates at a cell density of 4,000-10,000 cells/well depending on the cell line's growth rate. After a 24 h recovery period to allow the cells to resume exponential growth, 10 μL of culture medium (six control wells/plate) or of culture medium with test compound were added. The compounds were applied at 10 concentrations in triplicate in half-log increments up to 100 nM and cells were treated continuously for 96 h. […] Following an incubation period of up to 4 h, fluorescence (FU) was measured by using the Enspire Multimode Plate Reader (excitation λ=531 nm, emission λ=615 nm). IC50 values were determined with GraphPad Prism bioanalytic software (San Diego, Calif., USA).
In general terms: Resazurin is reduced to fluorescent resorufin, in cell work by metabolically active cells.

The nature of data set [2]: pH-dependent release of free drug from human serum albumin conjugates. It is filed as physicochemical. The settings on record: upon changing the pH from 7.4 to 4.1, 37° C., up to 24 hours. The procedure: The albumin-binding auristatin-Sulf07 derivatives were prepared as 2 mM stock solutions in anhydrous DMSO.
Release at pH 7.4: 442.4 μL of 1000 μM of reduced human serum albumin (881 μM free cysteine-34) and 727.6 μL PBS Buffer (4 mM sodium phosphate pH 7.4 and 150 mM NaCl) were added to a sealed HPLC vial and incubated at 37° C. for 30 minutes. After 30 minutes incubation 130 μL of the appropriate DMSO drug stock solution was added to the pre-incubated vial to produce a 200 μM solution of auristatin drug and a 300 μM solution of albumin (free cysteine-34). The mixture was allowed to react for 10 minutes at 37° C. and then analyzed by HPLC (method 7, 20 μL injection). Injections were repeated after 1 hour and then every hour up to 24 hours.
Release at pH 4.1: 408.5 μL of 1000 μM of reduced human serum albumin (881 μM free cysteine-34) and 539.4 μL of water were added to a sealed HPLC vial and incubated at 37° C. for 30 minutes. In a separate vial 190 μL sodium acetate buffer 50 mM pH 3.0 and 24.7 μL 1 M HCl were incubated at 37° C. for 30 minutes. […] The resulting solution was analyzed directly by HPLC (method 7). […]
The percentage of released free drug was determined by HPLC with a calibration curve (200 μM, 100 μM, 50 μM, 25 μM and 12.5 μM) for the free drugs i.e. AE-Keto for AE-Keto-Sulf07 and AE-Ester for AE-Ester-Sulf07. […]

The nature of data set [3]: Reconstitution stability (maleimide hydrolysis, loss of API) in reconstitution buffer. It is filed as physicochemical. The settings on record: after 4 hours incubation at room temperature in reconstitution buffer (50 mM sodium phosphate pH 7.65 containing 4% HPβCD and 5% sucrose). The procedure:
The albumin-binding AE-Keto drug derivatives were reconstituted in 50 mM sodium phosphate buffer pH 7.6 which contained 5% sucrose (w/v) and 2% 2-hydroxypropyl-β-cyclodextrin (2-HPβCD). Both drugs were reconstituted at a concentration of 1277 μM (equal to 4.5 mg/kg murine xenograft dose), the dissolution of both drugs was confirmed by HPLC (method 2, 254 nm). Stability of the reconstituted drugs was monitored by HPLC at room temperature every 15 minutes over a period of 240 minutes for maleimide hydrolysis and loss of API.
The albumin-binding AE-Ester derivatives were reconstituted in 50 mM sodium phosphate buffer pH 7.6 which contained 5% sucrose (w/v) and 4% 2-HPβCD. Both drugs were reconstituted at a concentration of 655 μM (equal to 2.4 mg/kg murine xenograft dose), the dissolution of both drugs was confirmed by HPLC (method 2, 310 nm). Stability of the reconstituted drugs was monitored by HPLC at room temperature every 15 minutes over a period of 240 minutes for maleimide hydrolysis and loss of API.

[4] abbreviates: Homo sapiens, 96 h, read-out: Geometric mean IC50, geometric mean over six cell lines, 96 h treatment.

Like-named read-outs stand apart in the source and are kept apart here.

In general, IC50 refers to the concentration that inhibits the measured activity by half.

Consider `CC[C@H](C)[C@@H]([C@@H](CC(=O)N1CCC[C@H]1[C@H](OC)[C@@H](C)C(=O)N[C@H](C)[C@@H](OC(=O)c1ccc(C(C)=O)cc1)c1ccccc1)OC)N(C)C(=O)[C@@H](NC(=O)[C@H](C(C)C)N(C)C)C(C)C` (stereo in doubt) [AE-Ester, (1S,2R)-2-((3R)-3-((S)-1-((3R,4S,5R)-4-((S)-2-((S)-2-(dimethylamino)-3-methylbutanamido)-N,3-dimethylbutanamido)-3-methoxy-5-methylheptanoyl)pyrrolidin-2-yl)-3-methoxy-2-methylpropanamido)-1-phenylpropyl 4-acetylbenzoate], for which the IC50 in data set [1] (setting [4]) came out at 0.339 nM; in data set [1] (read-out: Geometric mean IC50, geometric mean over six cell lines, 96 h treatment), 0.399 ± 0.00019 nM. Further, the “percent of free drug released from albumin conjugate” value in data set [2] is “higher than the percent of AE-Keto released”.
Molecule `CC[C@H](C)[C@@H]([C@@H](CC(=O)N1CCC[C@H]1[C@H](OC)[C@@H](C)C(=O)N[C@H](C)[C@@H](OC(=O)c1ccc(C(C)=NNC(=O)CCCCCN2C(=O)C=CC2=O)cc1)c1ccccc1)OC)N(C)C(=O)[C@@H](NC(=O)[C@H](C(C)C)N(C)C)C(C)C` [AE-Ester-EMCH, reference compound] returned a maleimide hydrolyzed in data set [3] of 11.0%.
On to `CC[C@H](C)[C@@H]([C@@H](CC(=O)N1CCC[C@H]1[C@H](OC)[C@@H](C)C(=O)N[C@H](C)C(=O)c1ccccc1)OC)N(C)C(=O)[C@@H](NC(=O)[C@H](C(C)C)N(C)C)C(C)C` [AE-Keto, (S)-1-(((S)-1-(((3R,4S,5S)-3-methoxy-1-((S)-2-((1R,2R)-1-methoxy-2-methyl-3-oxo-3-(((R)-1-oxo-1-phenylpropan-2-yl)amino)propyl)pyrrolidin-1-yl)-5-methyl-1-oxoheptan-4-yl)(methyl)amino)-3-methyl-1-oxobutan-2-yl)amino)-N,N,3-trimethyl-1-oxobutan-2-aminium 2,2,2-trifluoroacetate], for which, in data set [1] (setting [4]), the IC50 came to 0.259 nM.
`CC[C@H](C)[C@@H]([C@@H](CC(=O)N1CCC[C@H]1[C@H](OC)[C@@H](C)C(=O)N[C@H](C)C(=NNC(=O)CCCCCN1C(=O)C=CC1=O)c1ccccc1)OC)N(C)C(=O)[C@@H](NC(=O)[C@H](C(C)C)N(C)C)C(C)C` [AE-Keto-EMCH, reference compound]: in data set [3], the maleimide hydrolyzed was 5.4%.
